Where a name gives a salt, the structure may show the parent alone.
Tests used:
[1] = Third cross-over study: Maxiclear PE 2.5 (two tablets) vs Sudafed PE (6 adult subjects); assay type: in vivo; details: human, oral, 10 mg; phenylephrine in plasma, mean, untransformed data, n = 6 adult humans
[2] = First crossover study: absorption of phenylephrine, PE HCl alone vs Maxigesic PE (28 adult subjects); assay type: in vivo; details: human, 10 mg; phenylephrine in blood plasma, mean, oral tablets, n = 28 adult humans

Cmax [1]: 1.13 ng/mL | Tmax [1]: 42 min | Cmax [2]: 0.874 ng/mL | Tmax [2]: 42 min
SMILES: CNC[C@H](O)c1cccc(O)c1 [10 mg phenylephrine hydrochloride, phenylephrine hydrochloride]

From patent publication US20170087104A1, “MEDICAMENT” (AFT Pharmaceuticals Ltd., priority 2013, published 2017)
